Like-named read-outs stand apart in the source and are kept apart here.
Tests used:
[1] = tested on: AMO-1 human multiple myeloma tumor cell line; assay: AMO-1 cell viability assay (CellTiter-Glo, 24 hours); type: cell-based; settings: Homo sapiens, AMO1, 24 h, read-out: AMO-1 Viability IC50 (μM, 10% FBS), 10% FBS, 24 hours of compound treatment
[2] = tested on: NCI-H929 human multiple myeloma tumor cell line; assay: NCI-H929 cell viability assay (CellTiter-Glo, 24 hours); type: cell-based; settings: Homo sapiens, NCI-H929, 24 h, read-out: H929 Viability IC50 (μM, 10% FBS), 10% FBS, 24 hours of compound treatment
GST-MCL-1 = GST-MCL-1 (Homo sapiens, UniProt Q07820); assay: TR-FRET MCL-1 binding assay (competition with probe F-Bak)
Method in brief: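 Displacement of F-Bak from GST-MCL-1 is detected by time-resolved FRET with a Tb-labelled anti-GST antibody, with excitation 340/35 nm and emission 520/525 and 495/510 nm, after 2 hours at room temperature. Compounds were titrated in 11 three-fold steps starting at 25 μM final, in buffer alone or in 10% HS.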

[3] = MCL-1 Binding Ki (nM, 10% HS), in the presence of 10% HS (human serum)
[4] = without HS, read-out: MCL-1 Binding Ki

GST-MCL-1, sequence (Q07820 whole entry): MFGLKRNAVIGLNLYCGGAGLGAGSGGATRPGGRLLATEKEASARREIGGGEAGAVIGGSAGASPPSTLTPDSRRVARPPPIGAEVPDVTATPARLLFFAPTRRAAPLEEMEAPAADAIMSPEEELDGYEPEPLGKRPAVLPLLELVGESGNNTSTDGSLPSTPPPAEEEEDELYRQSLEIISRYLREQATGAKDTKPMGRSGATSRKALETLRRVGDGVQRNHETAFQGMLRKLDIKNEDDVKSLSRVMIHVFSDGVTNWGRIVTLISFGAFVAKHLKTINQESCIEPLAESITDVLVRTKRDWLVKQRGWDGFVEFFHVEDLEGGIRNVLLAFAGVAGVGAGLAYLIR

SMILES	IC50 [1]	IC50 [2]	Ki (GST-MCL-1; [3])	Ki (GST-MCL-1; [4])
COCCOCCOCCOCC1(F)CC=C(c2nccc(COc3ccc4cc3C[C@H](C(=O)O)Oc3ncnc5sc(-c6ccc(F)cc6)c(c35)-c3c(C)c(Cl)c(c(Cl)c3C)O[C@H](CN3CCN(C)CC3)CO4)n2)CC1 (single isomer, unassigned) [Example 101, (7R,16R)-19,23-dichloro-1-(4-fluorophenyl)-10-({2-[(4S*)-4-fluoro-4-(2,5,8,11-tetraoxadodecan-1-yl)cyclohex-1-en-1-yl]pyrimidin-4-yl}methoxy)-20,22-dimethyl-16-[(4-methylpiperazin-1-yl)methyl]-7,8,15,16-tetrahydro-18,21-etheno-13,9-(metheno)-6,14,17-trioxa-2-thia-3,5-diazacyclononadeca[1,2,3-cd]indene-7-carboxylic Acid]	0.000195 µM	0.000298 µM	0.235 nM	0.02 nM
Cc1c(Cl)c2c(Cl)c(C)c1-c1c(-c3ccc(F)cc3)sc3ncnc(c13)O[C@@H](C(=O)O)Cc1cc(ccc1OCc1ccnc(N3CCC(F)(COCCOCC4COCCO4)CC3)n1)OC[C@@H](CN1CCN(C)CC1)O2 (stereo partly drawn) [Example 91, (7R,16R)-19,23-dichloro-10-({2-[4-({2-[(1,4-dioxan-2-yl)methoxy]ethoxy}methyl)-4-fluoropiperidin-1-yl]pyrimidin-4-yl}methoxy)-1-(4-fluorophenyl)-20,22-dimethyl-16-[(4-methylpiperazin-1-yl)methyl]-7,8,15,16-tetrahydro-18,21-etheno-13,9-(metheno)-6,14,17-trioxa-2-thia-3,5-diazacyclononadeca[1,2,3-cd]indene-7-carboxylic Acid]	0.00072 µM	0.00192 µM	2.1 nM	0.231 nM
COCCOCCOC[C@H]1CC[C@H](c2nccc(COc3ccc4cc3C[C@H](C(=O)O)Oc3ncnc5sc(-c6ccc(F)cc6)c(c35)-c3c(C)c(Cl)c(c(Cl)c3C)O[C@H](CN3CCN(C)CC3)CO4)n2)CC1 [Example 160, (7R,16R)-19,23-dichloro-1-(4-fluorophenyl)-10-({2-[(1r,4r)-4-{[2-(2-methoxyethoxy)ethoxy]methyl}cyclohexyl]pyrimidin-4-yl}methoxy)-20,22-dimethyl-16-[(4-methylpiperazin-1-yl)methyl]-7,8,15,16-tetrahydro-18,21-etheno-13,9-(metheno)-6,14,17-trioxa-2-thia-3,5-diazacyclononadeca[1,2,3-cd]indene-7-carboxylic Acid]	0.000116 µM	0.000206 µM	0.083 nM	0.005 nM
COCCOCCOCCOCCOCC1(F)CC=C(c2nccc(COc3ccc4cc3C[C@H](C(=O)O)Oc3ncnc5sc(-c6ccc(F)cc6)c(c35)-c3c(C)c(Cl)c(c(Cl)c3C)O[C@H](CN3CCN(C)CC3)CO4)n2)CC1 (single isomer, unassigned) [Example 106, (7R,16R)-19,23-dichloro-10-({2-[(4R*)-4-fluoro-4-(2,5,8,11,14-pentaoxapentadecan-1-yl)cyclohex-1-en-1-yl]pyrimidin-4-yl}methoxy)-1-(4-fluorophenyl)-20,22-dimethyl-16-[(4-methylpiperazin-1-yl)methyl]-7,8,15,16-tetrahydro-18,21-etheno-13,9-(metheno)-6,14,17-trioxa-2-thia-3,5-diazacyclononadeca[1,2,3-cd]indene-7-carboxylic Acid]	0.000216 µM	0.000288 µM	0.166 nM	0.036 nM
COCC(COC)Oc1ccc(-c2nccc(COc3ccc4cc3C[C@H](C(=O)O)Oc3ncnc5sc(-c6ccc(F)cc6)c(c35)-c3c(C)c(Cl)c(c(Cl)c3C)O[C@H](CN3CCN(C)CC3)CO4)n2)cc1 [Example 110, (7R,16R)-19,23-dichloro-10-[(2-{4-[(1,3-dimethoxypropan-2-yl)oxy]phenyl}pyrimidin-4-yl)methoxy]-1-(4-fluorophenyl)-20,22-dimethyl-16-[(4-methylpiperazin-1-yl)methyl]-7,8,15,16-tetrahydro-18,21-etheno-9,13-(metheno)-6,14,17-trioxa-2-thia-3,5-diazacyclononadeca[1,2,3-cd]indene-7-carboxylic Acid]	0.000306 µM	0.00103 µM	49.9 nM	9.63 nM
COCCOCCOCC1CN(c2nccc(COc3ccc4cc3C[C@H](C(=O)O)Oc3ncnc5sc(-c6ccc(F)cc6)c(c35)-c3c(C)c(Cl)c(c(Cl)c3C)O[C@H](CN3CCN(C)CC3)CO4)n2)C1 [Example 139, (7R,16R)-19,23-dichloro-1-(4-fluorophenyl)-10-{[2-(3-{[2-(2-methoxyethoxy)ethoxy]methyl}azetidin-1-yl)pyrimidin-4-yl]methoxy}-20,22-dimethyl-16-[(4-methylpiperazin-1-yl)methyl]-7,8,15,16-tetrahydro-18,21-etheno-9,13-(metheno)-6,14,17-trioxa-2-thia-3,5-diazacyclononadeca[1,2,3-cd]indene-7-carboxylic Acid]	0.00231 µM	0.00307 µM	1.21 nM	0.147 nM
COCCOCCOCCOCCOC[C@@H]1CCCC[C@H]1c1nccc(COc2ccc3cc2C[C@H](C(=O)O)Oc2ncnc4sc(-c5ccc(F)cc5)c(c24)-c2c(C)c(Cl)c(c(Cl)c2C)O[C@H](CN2CCN(C)CC2)CO3)n1 (relative stereo) [Example 120, (7R,16R)-19,23-dichloro-1-(4-fluorophenyl)-20,22-dimethyl-16-[(4-methylpiperazin-1-yl)methyl]-10-({2-[(1R*,2R*)-2-(2,5,8,11,14-pentaoxapentadecan-1-yl)cyclohexyl]pyrimidin-4-yl}methoxy)-7,8,15,16-tetrahydro-18,21-etheno-13,9-(metheno)-6,14,17-trioxa-2-thia-3,5-diazacyclononadeca[1,2,3-cd]indene-7-carboxylic Acid]	0.000231 µM	0.000386 µM	–	26.3 nM
Cc1c(Cl)c2c(Cl)c(C)c1-c1c(-c3ccc(F)cc3)sc3ncnc(c13)O[C@@H](C(=O)O)Cc1cc(ccc1OCc1ccnc(C3CCS(=O)(=O)CC3)n1)OC[C@@H](CN1CCN(C)CC1)O2 [Example 40, (7R,16R)-19,23-dichloro-10-{[2-(1,1-dioxo-1λ^6-thian-4-yl)pyrimidin-4-yl]methoxy}-1-(4-fluorophenyl)-20,22-dimethyl-16-[(4-methylpiperazin-1-yl)methyl]-7,8,15,16-tetrahydro-18,21-etheno-13,9-(metheno)-6,14,17-trioxa-2-thia-3,5-diazacyclononadeca[1,2,3-cd]indene-7-carboxylic Acid]	0.003 µM	0.00474 µM	0.085 nM	0.018 nM
Cc1c(Cl)c2c(Cl)c(C)c1-c1c(-c3ccc(F)cc3)sc3ncnc(c13)O[C@@H](C(=O)O)Cc1cc(ccc1OCc1ccnc(-c3ccc(CCN4CC5COCC5C4)cc3)n1)OC[C@@H](CN1CCN(C)CC1)O2 (stereo partly drawn) [Example 166, (7R,16R)-19,23-dichloro-1-(4-fluorophenyl)-20,22-dimethyl-16-[(4-methylpiperazin-1-yl)methyl]-10-[(2-{4-[2-(tetrahydro-1H-furo[3,4-c]pyrrol-5 (3H)-yl)ethyl]phenyl}pyrimidin-4-yl)methoxy]-7,8,15,16-tetrahydro-18,21-etheno-9,13-(metheno)-6,14,17-trioxa-2-thia-3,5-diazacyclononadeca[1,2,3-cd]indene-7-carboxylic Acid]	0.000927 µM	0.0032 µM	0.058 nM	0.002 nM
COCCOCCOCCOc1cccc(COc2ccc3cc2C[C@H](C(=O)O)Oc2ncnc4sc(-c5ccc(F)cc5)c(c24)-c2c(C)c(Cl)c(c(Cl)c2C)O[C@H](CN2CCN(C)CC2)CO3)n1 [Example 99, (7R,16R)-19,23-dichloro-1-(4-fluorophenyl)-10-[(6-{2-[2-(2-methoxyethoxy)ethoxy]ethoxy}pyridin-2-yl)methoxy]-20,22-dimethyl-16-[(4-methylpiperazin-1-yl)methyl]-7,8,15,16-tetrahydro-18,21-etheno-9,13-(metheno)-6,14,17-trioxa-2-thia-3,5-diazacyclononadeca[1,2,3-cd]indene-7-carboxylic Acid]	0.000655 µM	0.00269 µM	6.17 nM	0.543 nM
COCCOCCOCCOCCOCCOCCOCCC(=O)N1CCC[C@@H]1c1nccc(COc2ccc3cc2C[C@H](C(=O)O)Oc2ncnc4sc(-c5ccc(F)cc5)c(c24)-c2ccc(c(Cl)c2C)O[C@H](CN2CCN(C)CC2)CO3)n1 [Example 43, (7R,16R)-19-chloro-1-(4-fluorophenyl)-20-methyl-16-[(4-methylpiperazin-1-yl)methyl]-10-({2-[(2R)-1-(23-oxo-2,5,8,11,14,17,20-heptaoxatricosan-23-yl)pyrrolidin-2-yl]pyrimidin-4-yl}methoxy)-7,8,15,16-tetrahydro-18,21-etheno-13,9-(metheno)-6,14,17-trioxa-2-thia-3,5-diazacyclononadeca[1,2,3-cd]indene-7-carboxylic Acid]	> 1 µM	> 1 µM	39.4 nM	41.1 nM
COCCOCCOCCOCCOCCOCCOCC1(c2nccc(COc3ccc4cc3C[C@H](C(=O)O)Oc3ncnc5sc(-c6ccc(F)cc6)c(c35)-c3c(C)c(Cl)c(c(Cl)c3C)O[C@H](CN3CCN(C)CC3)CO4)n2)CCC1 [Example 60, (7R,16R)-19,23-dichloro-1-(4-fluorophenyl)-10-({2-[1-(2,5,8,11,14,17,20-heptaoxahenicosan-1-yl)cyclobutyl]pyrimidin-4-yl}methoxy)-20,22-dimethyl-16-[(4-methylpiperazin-1-yl)methyl]-7,8,15,16-tetrahydro-18,21-etheno-13,9-(metheno)-6,14,17-trioxa-2-thia-3,5-diazacyclononadeca[1,2,3-cd]indene-7-carboxylic Acid]	0.000987 µM	0.00115 µM	0.125 nM	0.042 nM

Reference: patent US20250313572A1, “MACROCYCLIC MCL-1 INHIBITORS AND METHODS OF USE” (AbbVie Inc., priority 2017, published 2025)
